pKi: −log10 of the molar value.
Columns and labels:
[1] = target: 5-hydroxytryptamine receptor 2A (Homo sapiens, UniProt P28223)
[2] = target: T1, 5-hydroxytryptamine receptor 1A (Homo sapiens, UniProt P08908); assay: biochemical; type: cell-based, HeLa
T1 sequence (P08908 whole entry): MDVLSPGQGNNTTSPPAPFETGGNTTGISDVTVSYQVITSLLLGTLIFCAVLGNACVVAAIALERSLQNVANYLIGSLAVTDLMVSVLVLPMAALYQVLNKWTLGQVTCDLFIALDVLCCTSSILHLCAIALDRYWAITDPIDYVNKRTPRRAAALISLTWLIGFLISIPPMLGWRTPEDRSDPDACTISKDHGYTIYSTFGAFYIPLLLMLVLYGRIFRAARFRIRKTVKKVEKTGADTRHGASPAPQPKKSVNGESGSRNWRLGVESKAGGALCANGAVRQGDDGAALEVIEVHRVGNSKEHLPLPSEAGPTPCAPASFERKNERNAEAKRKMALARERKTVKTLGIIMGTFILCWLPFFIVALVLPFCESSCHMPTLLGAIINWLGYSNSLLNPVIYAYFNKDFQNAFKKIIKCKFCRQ

in vivo [3] = conditions: rat, po
D(2) dopamine receptor = D(2) dopamine receptor (Homo sapiens, UniProt P14416); assay: biochemical; type: cell-based, CHO
Mus musculus [4] = organism: Mus musculus; type: functional, Brain
Mus musculus [5] = organism: Mus musculus; conditions: in vivo
Mus musculus [6] = organism: Mus musculus; assay: animal or person; conditions: po, read-out: MED
Mus musculus [7] = organism: Mus musculus; type: functional, Brain; remark: listed apart in the source
Rattus norvegicus [8] = organism: Rattus norvegicus; type: functional
Rattus norvegicus [9] = organism: Rattus norvegicus; assay: animal or person; type: functional; conditions: po
Rattus norvegicus [10] = organism: Rattus norvegicus; assay: animal or person; type: functional; conditions: po; remark: listed apart in the source
in vivo [11] = conditions: rat, po, 3 mg/kg
in vivo [12] = conditions: rhesus monkey, po, 3 mg/kg
in vivo [13] = conditions: rat, po, 3 mg/kg; remark: listed apart in the source
in vivo [14] = conditions: rhesus monkey, po, 3 mg/kg; remark: listed apart in the source
in vivo [15] = conditions: rat, iv, 1 mg/kg
in vivo [16] = conditions: rhesus monkey, iv, 1 mg/kg
in vivo [17] = conditions: rat, iv, 1 mg/kg; remark: listed apart in the source
in vivo [18] = conditions: rhesus monkey, iv, 1 mg/kg; remark: listed apart in the source
in vivo [19] = conditions: rat, iv, 1 mg/kg; remark: listed apart in the source
in vivo [20] = conditions: rhesus monkey, iv, 1 mg/kg; remark: listed apart in the source
in vivo [21] = conditions: rat, po, 3 mg/kg; remark: listed apart in the source
in vivo [22] = conditions: rhesus monkey, po, 3 mg/kg; remark: listed apart in the source

Chain of D(2) dopamine receptor (P14416 whole entry): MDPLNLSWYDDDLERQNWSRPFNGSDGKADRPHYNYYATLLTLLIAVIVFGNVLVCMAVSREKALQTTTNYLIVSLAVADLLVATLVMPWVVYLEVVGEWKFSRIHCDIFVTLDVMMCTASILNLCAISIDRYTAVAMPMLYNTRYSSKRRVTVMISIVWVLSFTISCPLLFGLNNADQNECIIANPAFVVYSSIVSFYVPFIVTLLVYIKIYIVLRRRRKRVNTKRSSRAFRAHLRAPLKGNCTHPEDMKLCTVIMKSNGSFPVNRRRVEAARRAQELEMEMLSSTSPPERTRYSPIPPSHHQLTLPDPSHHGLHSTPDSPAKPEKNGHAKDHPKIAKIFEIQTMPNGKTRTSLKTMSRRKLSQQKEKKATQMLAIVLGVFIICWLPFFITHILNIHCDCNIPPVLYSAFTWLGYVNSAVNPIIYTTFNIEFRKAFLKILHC
Chain of 5-hydroxytryptamine receptor 2A (P28223 whole entry): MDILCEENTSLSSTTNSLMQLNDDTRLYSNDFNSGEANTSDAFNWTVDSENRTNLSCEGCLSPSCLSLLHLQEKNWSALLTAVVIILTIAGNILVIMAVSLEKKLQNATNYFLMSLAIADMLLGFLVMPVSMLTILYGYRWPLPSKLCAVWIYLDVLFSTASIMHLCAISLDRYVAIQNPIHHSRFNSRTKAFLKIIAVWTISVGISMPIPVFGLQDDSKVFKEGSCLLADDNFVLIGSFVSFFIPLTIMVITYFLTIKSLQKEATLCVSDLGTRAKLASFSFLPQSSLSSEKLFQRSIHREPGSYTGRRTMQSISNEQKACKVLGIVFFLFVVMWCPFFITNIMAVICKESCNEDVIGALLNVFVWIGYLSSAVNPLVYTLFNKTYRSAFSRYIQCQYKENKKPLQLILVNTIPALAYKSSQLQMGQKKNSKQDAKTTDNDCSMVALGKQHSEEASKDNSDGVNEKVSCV

pKi [1] | pKi [2] | SMILES | further results
9.10 | 7.94 | O=C1CCc2ccc(CCCCCN3CCN(c4cccc(Cl)c4Cl)CC3)nc2N1 | bioavailability (in vivo [3]): 6%
9.89 | 7.75 | O=C1CCc2ccc(OCCCCN3CCN(c4cccc(Cl)c4Cl)CC3)nc2N1 | bioavailability (in vivo [3]): 23%
8.80 | 7.85 | O=c1ccc2ccc(OCCCCN3CCN(c4cccc(Cl)c4Cl)CC3)nc2[nH]1 | –
8.54 | 7.39 | O=c1ccc2cnc(OCCCCN3CCN(c4cccc(Cl)c4Cl)CC3)cc2[nH]1 | –
8.49 | 7.28 | O=c1ccc2cnc(OCCCCN3CCN(c4cccc(Cl)c4Cl)CC3)nc2[nH]1 | –
7.80 | 8.34 | O=C1CCc2ccc(OCCCCN3CCN(c4ccccc4Cl)CC3)nc2N1 | –
7.51 | 8.77 | O=C1CCc2ccc(OCCCCN3CCN(c4cccc(F)c4Cl)CC3)nc2N1 | –
9.30 | – | Cc1cccc(N2CCN(CCCCOc3ccc4c(n3)NC(=O)CC4)CC2)c1Cl | –
7.29 | – | Cc1ccccc1N1CCN(CCCCOc2ccc3c(n2)NC(=O)CC3)CC1 | –
9.46 | – | Cc1cccc(N2CCN(CCCCOc3ccc4c(n3)NC(=O)CC4)CC2)c1C | –
8.82 | – | Cc1c(Cl)cccc1N1CCN(CCCCOc2ccc3c(n2)NC(=O)CC3)CC1 | –
7.98 | 8.92 | O=C1CCc2ccc(OCCCCN3CCN(c4cccc(Cl)c4F)CC3)nc2N1 | –
7.92 | – | O=C1CCc2ccc(OCCCCN3CCN(c4cccc(C(F)(F)F)c4Cl)CC3)nc2N1 | –
8.85 | 8.46 | O=C1CCc2ccc(OCCCCN3CCN(c4cccc(Cl)c4C(F)(F)F)CC3)nc2N1 | pKi (D(2) dopamine receptor): 8.52
9.80 | 8.20 | O=C1CCc2ccc(OCCCCN3CCN(c4cccc5c4CCC5)CC3)nc2N1 | –
10.05 | 7.55 | O=C1CCc2ccc(OCCCCN3CCN(c4cccc5c4CCCC5)CC3)nc2N1 | –
8.89 | 9.11 | O=C1CCc2ccc(OCCCCN3CCN(c4cccc5c4CCCO5)CC3)nc2N1 | pKi (D(2) dopamine receptor): 9.00
9.72 | 8.96 | O=C1CCc2ccc(OCCCCN3CCN(c4cccc5c4OCCC5)CC3)nc2N1 | pKi (D(2) dopamine receptor): 9.15
8.17 | 9.08 | O=C1CCc2ccc(OCCCCN3CCN(c4c(F)ccc5ccccc45)CC3)nc2N1 | –
8.72 | 8.48 | O=C1CCc2ccc(OCCCCN3CCN(c4cc(F)cc5ccccc45)CC3)nc2N1 | –
7.93 | – | O=C1CCc2ccc(OCCCCN3CCN(c4ccc(F)c5ccccc45)CC3)nc2N1 | –
8.48 | 8.52 | O=C1CCc2ccc(OCCCCN3CCN(c4cccc5c(F)cccc45)CC3)nc2N1 | –
8.46 | 8.92 | O=C1CCc2ccc(OCCCCN3CCN(c4cccc5cc(F)ccc45)CC3)nc2N1 | –
9.55 | 8.96 | O=C1CCc2ccc(OCCCCN3CCN(c4cccc5ccc(F)cc45)CC3)nc2N1 | pKi (D(2) dopamine receptor): 8.92
9.17 | 9.11 | O=C1CCc2ccc(OCCCCN3CCN(c4cccc5cccc(F)c45)CC3)nc2N1 | pKi (D(2) dopamine receptor): 8.77
– | – | O=c1ccc2ccc(OCCCCN3CCN(c4cccc5ccccc45)CC3)nc2[nH]1 | inhibition (INH) (Mus musculus [4]): 45%; MED (Mus musculus [5]): > 30 mg/kg; minimal effective dose (Mus musculus [6]): 1 mg/kg
9.85 | 8.43 | O=C1CCc2ccc(OCCCCN3CCN(c4cccc5ccccc45)CC3)nc2N1 [PF-00217830] | inhibition (INH) (Mus musculus [7]): 46%; inhibition (INH) (Rattus norvegicus [8]): 78%; inhibition in vivo at 0.3 mg/kg (Rattus norvegicus [9]): 31%; inhibition in vivo at 1 mg/kg (Rattus norvegicus [10]): 78%; MED (Mus musculus [5]): > 10 mg/kg; Cmax (in vivo [11]): 202 ng/mL; Cmax (in vivo [12]): 96 ng/mL; Tmax (in vivo [13]): 1.2 h; Tmax (in vivo [14]): 5 h; clearance (in vivo [15]): 14.9 mL/min/kg; clearance (in vivo [16]): 5.8 mL/min/kg; Vd (in vivo [17]): 1.1 L/kg; Vd (in vivo [18]): 2.6 L/kg; half-life (in vivo [19]): 6.8 h; half-life (in vivo [20]): 13.6 h; bioavailability (in vivo [21]): 19.2%; bioavailability (in vivo [22]): 20.5%; minimal effective dose (Mus musculus [6]): 0.3 mg/kg

Reference: ChEMBL document CHEMBL1773056 (Bioorg Med Chem Lett, 2011)
